Here are results for 2 compounds from patent US8969612B2, “Low interfacial tension surfactants for petroleum applications” (Soane Energy, LLC, priority 2009, dated 2015).

Holding throughout (format): physicochemical
A short description of series [1]: Interfacial tension, Du Nouys ring tensiometer (Example 14), interface with air. The conditions noted are these: 1% by weight solution, neutral pH (5 M NaOH). As for the experimental part:
(§1) Surfactant molecules were tested for their ability to decrease the surface tension across the aqueous-organic interface.

Series [2] is described as follows: Viscosity of 70:30 heavy oil to water mixture, Brookfield rheometer (Example 16). Here is the method: The mixture was gently stirred until it was observed it achieved a single liquid phase. Previously, the viscosity of the neat heavy oil sample was measured at 3431 cP using a Brookfield DVIII+ Rheometer. […] Next, 1 mL of 10 M HCl was added and the mixture was stirred gently, while observing phase separation of the oil and water.

Series [3] is described as follows: Interfacial tension, Du Nouys ring tensiometer (Example 14), interface with light crude oil. The conditions noted are these: 1% by weight solution, neutral pH (5 M NaOH); light crude oil API=37.4°. As for the experimental part:
as §1

Series [4] can be described thus: Interfacial tension, Du Nouys ring tensiometer (Example 14), interface with ISOPAR M. The conditions noted are these: 1% by weight solution, neutral pH (5 M NaOH). As for the experimental part: as §1
Series [5] can be described thus: Solubility in water at 25° C.

On to “2-(nonen-1-yl)succinic acid mono (2-cyclohexylethyl) ester [Example 3]”, for which the IFT w/air in series [1] was determined as 28.68 mN/m. Further, in series [2] (105 mL heavy oil + 45 mL 1% surfactant solution, neat heavy oil 3431 cP), the “viscosity of the 70:30 oil to water mixture” value is 100.2 cP. The “viscosity of oil decanted after phase separation with HCl” value in series [2] (after addition of 1 mL of 10 M HCl to the 70:30 mixture) was “same viscosity measurement as the untreated heavy oil sample”. For the same compound, the “IFT w/Crude Oil” value in series [3] is reported as <0.01 mN/m. Moreover, the “IFT w/ISOPAR” value in series [4] worked out at 0.09 mN/m.

Consider `CCCCCC/C=C/CC(CC(=O)OCC(C)(C)COC(=O)CC(C/C=C/CCCCCC)C(=O)O)C(=O)O` (stereo not drawn) [Example 2], for which the “solubility in water (in words)” value in series [5] is given as “very limited solubility in water”.
